In ChEMBL document CHEMBL1136619, “Synthesis of a new family of glycolipidic nitrones as potential antioxidant drugs for neurodegenerative disorders” (Bioorg Med Chem Lett, 2003):

Tested on: neuronal
Assay: Cytotoxic activity in cultured neuronal cells determined using MTT viability assay
Assay type: functional, cell-based

Work on `CCCCCCCCCCCCSCC(C)(C)/[N+]([O-])=C/c1ccc(CNC(=O)[C@H](O)[C@@H](O)[C@H](O[C@@H]2O[C@@H](CO)[C@H](O)[C@H](O)[C@@H]2O)[C@H](O)CO)cc1` yielded a Concentration of 400 µM.
